pIC50: −log10 of the molar value. Some results are limits rather than exact numbers.

This experiment deals with Human factor D (Homo sapiens (Human), UniProt P00746). The experiment is classed as biochemical.
Human factor D, sequence (P00746 26-253 limits assumed): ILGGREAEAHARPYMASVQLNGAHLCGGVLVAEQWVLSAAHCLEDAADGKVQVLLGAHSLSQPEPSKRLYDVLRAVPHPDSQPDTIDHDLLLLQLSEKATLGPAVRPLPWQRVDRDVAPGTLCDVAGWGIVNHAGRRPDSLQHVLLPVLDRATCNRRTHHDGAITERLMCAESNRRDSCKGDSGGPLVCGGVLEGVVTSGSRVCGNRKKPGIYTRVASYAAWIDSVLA
In the case of `CCOP(=O)(O)c1ccc2c(C(C)=O)cn(CC(=O)N3C[C@H](F)C[C@H]3C(=O)NCc3cccc(Cl)c3F)c2c1` [Compound 2, ethyl hydrogen 3-acetyl-1-(2-((2S,4R)-2-(3-chloro-2-fluorobenzylcarbamoyl)-4-fluoropyrrolidin-1-yl)-2-oxoethyl)-1H-indol-6-ylphosphonate], the pIC50 (usually −log10 of the IC50, conventionally taken in molar units) is above 6.00.
Regarding `CCOP(=O)(OCC)c1cc2c(cc1F)c(C(C)=O)cn2CC(=O)N1C[C@H](F)C[C@H]1C(=O)NCc1cccc(Cl)c1F` [Compound 30, diethyl 3-acetyl-1-(2-((2S,4R)-2-(3-chloro-2-fluorobenzylcarbamoyl)-4-fluoropyrrolidin-1-yl)-2-oxoethyl)-5-fluoro-1H-indol-6-ylphosphonate], the pIC50 was above 6.00.
Consider `CCOP(=O)(CC)c1ccc2c(C(C)=O)cn(CC(=O)N3C[C@H](F)C[C@H]3C(=O)NCc3cccc(Cl)c3F)c2c1` (stereo partly drawn) [Compound 24, ethyl 3-acetyl-1-(2-((2S,4R)-2-(3-chloro-2-fluorobenzylcarbamoyl)-4-fluoropyrrolidin-1-yl)-2-oxoethyl)-1H-indol-6-yl(ethyl)phosphinate], for which the pIC50 is above 6.00.
The same measure for `CCCCOP(=O)(O)c1ccc2c(C(C)=O)cn(CC(=O)N3C[C@H](F)C[C@H]3C(=O)NCc3cccc(Cl)c3F)c2c1` [Compound 21, butyl hydrogen 3-acetyl-1-(2-((2S,4R)-2-(3-chloro-2-fluorobenzylcarbamoyl)-4-fluoropyrrolidin-1-yl)-2-oxoethyl)-1H-indol-6-ylphosphonate]: above 6.00.
For `CCP(=O)(O)c1ccc2c(C(C)=O)cn(CC(=O)N3C[C@H](F)C[C@H]3C(=O)NCc3cccc(Cl)c3F)c2c1` [Compound 27, 3-acetyl-1-(2-((2S,4R)-2-(3-chloro-2-fluorobenzylcarbamoyl)-4-fluoropyrrolidin-1-yl)-2-oxoethyl)-1H-indol-6-yl(ethyl)phosphinic acid], the pIC50 is above 6.00.
Take `CC(=O)c1cn(CC(=O)N2C[C@H](F)C[C@H]2C(=O)NCc2cccc(Cl)c2F)c2cc(P(=O)(O)OCOC(=O)OC(C)C)ccc12` [Compound 22, ((3-acetyl-1-(2-((2S,4R)-2-(3-chloro-2-fluorobenzylcarbamoyl)-4-fluoropyrrolidin-1-yl)-2-oxoethyl)-1H-indol-6-yl)(hydroxy)phosphoryloxy) methyl isopropyl carbonate]: the pIC50 is above 6.00.
For `CCCCOP(=O)(OCCCC)c1ccc2c(C(C)=O)cn(CC(=O)N3C[C@H](F)C[C@H]3C(=O)NCc3cccc(Cl)c3F)c2c1` [Compound 20, dibutyl 3-acetyl-1-(2-((2S,4R)-2-(3-chloro-2-fluorobenzylcarbamoyl)-4-fluoropyrrolidin-1-yl)-2-oxoethyl)-1H-indol-6-ylphosphonate] the value was above 6.00.
`NC(=O)c1cn(CC(=O)N2C[C@H](F)C[C@H]2C(=O)NCc2cccc(Cl)c2F)c2cc(P(=O)(O)O)ccc12` [Compound 16, 3-carbamoyl-1-(2-((2S,4R)-2-(3-chloro-2-fluorobenzylcarbamoyl)-4-fluoropyrrolidin-1-yl)-2-oxoethyl)-1H-indol-6-ylphosphonic acid] showed a pIC50 above 6.00.
The same measure for `CC(=O)c1cn(CC(=O)N2C[C@H](F)C[C@H]2C(=O)NCc2cccc(Cl)c2F)c2cc(P(=O)(O)OCOC(=O)C(C)(C)C)ccc12` [Compound 28, ((3-acetyl-1-(2-((2S,4R)-2-(3-chloro-2-fluorobenzylcarbamoyl)-4-fluoropyrrolidin-1-yl)-2-oxoethyl)-1H-indol-6-yl)(hydroxy)phosphoryloxy) methyl pivalate]: above 6.00; for `CCOP(=O)(OCC)c1ccc2c(C(=O)OC)cn(CC(=O)N3C[C@H](F)C[C@H]3C(=O)NCc3cccc(Cl)c3F)c2c1` [Compound 13, methyl 1-(2-((2S,4R)-2-(3-chloro-2-fluorobenzylcarbamoyl)-4-fluoropyrrolidin-1-yl)-2-oxoethyl)-6-(diethoxyphosphoryl)-1H-indole-3-carboxylate]: above 6.00; for `CCOP(=O)(c1ccccc1)c1ccc2c(C(C)=O)cn(CC(=O)N3C[C@H](F)C[C@H]3C(=O)NCc3cccc(Cl)c3F)c2c1` (stereo partly drawn) [Compound 23, ethyl 3-acetyl-1-(2-((2S,4R)-2-(3-chloro-2-fluorobenzylcarbamoyl)-4-fluoropyrrolidin-1-yl)-2-oxoethyl)-1H-indol-6-yl(phenyl)phosphinate]: above 6.00.
For `CCOP(=O)(O)c1ccc2c(c1)c(C(C)=O)cn2CC(=O)N1C[C@H](F)C[C@H]1C(=O)NCc1cccc(Cl)c1F` [Compound 9, ethyl hydrogen 3-acetyl-1-(2-((2S,4R)-2-(3-chloro-2-fluorobenzylcarbamoyl)-4-fluoropyrrolidin-1-yl)-2-oxoethyl)-1H-indol-5-ylphosphonate] the value was below 5.00; for `CCOP(=O)(OCC)c1ccc2c(C(N)=O)nn(CC(=O)N3C[C@H](F)C[C@H]3C(=O)NCc3cccc(Cl)c3F)c2c1` [Compound 17, diethyl 3-carbamoyl-1-(2-((2S,4R)-2-(3-chloro-2-fluorobenzylcarbamoyl)-4-fluoropyrrolidin-1-yl)-2-oxoethyl)-1H-indazol-6-ylphosphonate], above 6.00; for `CC(=O)c1cn(CC(=O)N2[C@@H]3CCC[C@@H]3C[C@H]2C(=O)NCc2cccc(Cl)c2F)c2cc(P(=O)(O)O)ccc12` [Compound 7, 3-acetyl-1-(2-((2S,3aR,6aR)-2-(3-chloro-2-fluorobenzylcarbamoyl)hexa-hydrocyclopenta[b]pyrrol-1(2H)-yl)-2-oxoethyl)-1H-indol-6-ylphosphonic acid], above 6.00.
For `CC(=O)c1cn(CC(=O)N2C[C@H](F)C[C@H]2C(=O)NCc2cccc(Cl)c2F)c2cc(P(=O)(O)O)ccc12` [Compound 3, 3-acetyl-1-(2-((2S,4R)-2-(3-chloro-2-fluorobenzylcarbamoyl)-4-fluoropyrrolidin-1-yl)-2-oxoethyl)-1H-indol-6-ylphosphonic acid] the value was above 6.00; for `CC(=O)c1cn(CC(=O)N2C[C@H](F)C[C@H]2C(=O)NCc2cccc(Cl)c2F)c2cc(P(=O)(O)c3ccccc3)ccc12` [Compound 25, 3-acetyl-1-(2-((2S,4R)-2-(3-chloro-2-fluorobenzylcarbamoyl)-4-fluoropyrrolidin-1-yl)-2-oxoethyl)-1H-indol-6-yl(phenyl)phosphinic acid], above 6.00; for `CC(=O)c1cn(CC(=O)N2C[C@H](F)C[C@H]2C(=O)NCc2cccc(Cl)c2F)c2cc(P(=O)(OCOC(=O)C(C)(C)C)OCOC(=O)C(C)(C)C)ccc12` [Compound 26, ((3-acetyl-1-(2-((2S,4R)-2-(3-chloro-2-fluorobenzylcarbamoyl)-4-fluoropyrrolidin-1-yl)-2-oxoethyl)-1H-indol-6-yl)phosphoryl)bis(oxy)bis (methylene) bis(2,2-dimethylpropanoate)], above 6.00.
`O=C(NCc1cccc(Cl)c1F)[C@@H]1C[C@@H](F)CN1C(=O)Cn1cc(C(=O)C(F)(F)F)c2ccc(P(=O)(O)O)cc21` [Compound 32, 1-(2-((2S,4R)-2-(3-chloro-2-fluorobenzylcarbamoyl)-4-fluoropyrrolidin-1-yl)-2-oxoethyl)-3-(2,2,2-trifluoroacetyl)-1H-indol-6-ylphosphonic acid] had a pIC50 above 6.00.
Consider `CCOP(=O)(OCC)c1ccc2c(C(=O)O)nn(CC(=O)N3C[C@H](F)C[C@H]3C(=O)NCc3cccc(Cl)c3F)c2c1` [Compound 12, 1-(2-((2S,4R)-2-(3-chloro-2-fluorobenzylcarbamoyl)-4-fluoropyrrolidin-1-yl)-2-oxoethyl)-6-(diethoxyphosphoryl)-1H-indazole-3-carboxylic acid], for which the pIC50 was below 5.00.
In turn, `NC(=O)c1nn(CC(=O)N2C[C@H](F)C[C@H]2C(=O)NCc2cccc(Cl)c2F)c2cc(P(=O)(O)O)ccc12` [Compound 18, 3-carbamoyl-1-(2-((2S,4R)-2-(3-chloro-2-fluorobenzylcarbamoyl)-4-fluoropyrrolidin-1-yl)-2-oxoethyl)-1H-indazol-6-ylphosphonic acid] had a pIC50 above 6.00.
As for `CC(=O)c1cn(CC(=O)N2C[C@H](F)C[C@H]2C(=O)NCc2cccc(Cl)c2F)c2cc(P(=O)(O)OCC(F)(F)F)ccc12` [Compound 29, 2,2,2-trifluoroethyl hydrogen 3-acetyl-1-(2-((2S,4R)-2-(3-chloro-2-fluorobenzylcarbamoyl)-4-fluoropyrrolidin-1-yl)-2-oxoethyl)-1H-indol-6-ylphosphonate], the pIC50 is above 6.00.
